The values below come from patent US20090036530A1, “Crystalline acid of lipoxin A4 analogs and method of making” (Bayer Schering Pharma Aktiengesellschaft, priority 2006, published 2009).

The nature of this data set: Hygroscopicity study in automated water sorption analyzer (sorption/desorption isotherm). The class given is physicochemical. The procedure: Polymorph I of the free acid is transformed above 60% relative humidity into the hydrate. It is hygroscopic and adsorbs at 80% relative humidity approx. 8% moisture, which corresponds to a dihydrate of the substance. The hydration is reversible. Below 40% relative humidity a transformation into polymorph I is observed.
Data collection for the hygroscopicity studies was carried out in an automated water sorption analyzer. Approximately 10 mg of the investigated solid state form of the crystalline acid was exposed to a continuous flow of nitrogen with predetermined and constant relative humidity. The rate of sweep gas was set at 200 cm^3/min. For a basic assay, two full cycles (sorption/desorption) were measured at 25° C. The measurement was started at 0% relative humidity in order to remove surface water. Once the constant mass was achieved, the next humidity was automatically set. The water sorption/desorption was investigated in steps of 10% between 0% and 90% relative humidity under the criteria for initiation of the first step as set forth herein. Additionally, the sorption at about 98% relative humidity was investigated. Data was acquired using the DVSWin software.

Turning to `O=C(O)COC[C@H](O)[C@H](O)/C=C/C=C/C#C/C=C/[C@H](O)COc1ccc(F)cc1` [hydrate, 2-((2S,3R,4E,6E,10E,12S)-13-(4-fluorophenoxy)-2,3,12-trihydroxytrideca-4,6,10-trien-8-ynyloxy)acetic acid], for the setting “desorption”, the “relative humidity below which transformation into polymorph I is observed” value is recorded as “Below 40 % relative humidity”.
Turning to `O=C(O)COC[C@H](O)[C@H](O)/C=C/C=C/C#C/C=C/[C@H](O)COc1ccc(F)cc1` [polymorph I, 2-((2S,3R,4E,6E,10E,12S)-13-(4-fluorophenoxy)-2,3,12-trihydroxytrideca-4,6,10-trien-8-ynyloxy)acetic acid], the “relative humidity above which polymorph I is transformed into the hydrate” value (25° C., water sorption) is reported as “above 60 % relative humidity”. Also, the moisture adsorbed result (at 80% relative humidity, corresponds to a dihydrate) was “approx. 8%”. Where the note is “sorption isotherm, FIG. 1”, the “hygroscopicity (in words)” value was “hygroscopic”. Also, the “reversibility of the hydration” value (sorption/desorption cycles) is on record as “reversible”.
